From US20200188388A1, “METHODS AND COMPOSITIONS FOR PO[…] DRUGS AND REDUCING THEIR SIDE EFFECTS” (RVX THERAPEUTICS LTD., priority 2016, published 2020)

Tested on: Wistar rats
Assay: Rotenone-induced PSP: severe ataxia, limb dystonia and lethality
Assay type: in vivo, rat
Conditions: for Severe ataxia sustained dystonic postures and lethality (% of group): ataxia and limb dystonia ++-+++; for [lethality] (% of group): value in brackets
Description: The neuro-protective effect in the experimental groups of rats with rotenone-induced PSP was evaluated due the elimination of ataxia, limb dystonia and mortality caused by cerebellar neurotoxic action of rotenone (J. Neurochem., 2005, Vol. 95(4):930-9).
Ataxia and limb dystonia is typical incoordination neurotoxic effect of rotenone manifested in uncoordinated movements and hyper-locomotion, replaced by hypokinesia and stereotypes, and in severe cases a complete violation of antigravity reflexes, falling on its side dystonic posture and akinesia. Assessment of the severity of ataxia and limb dystonia in scores was performed using the following scale: (+) uncoordinated movement, hyperkinesia; (++) significant incoordination, hypokinesia, stereotypes, falling on its side; frequent spontaneous dystonic postures (+++) complete violation of antigravity reflexes, akinesia, sustained dystonic posture (J. Neurosci., 2014, 27; 34(35):11723-32)
Ataxia and limb dystonia registration was performed twice daily, 30 minutes before administration of rotenone and 180 minutes after administration of rotenone. For each experimental group on a daily basis, throughout the whole period of observation number of rats with severe ataxia and limb dystonia (++−+++) and mortality in % of the total number of rats in group was determined. The neuro-protective effect of therapy (effects on rate of ataxia, limb dystonia and lethality) in rats with PSP was determined at days 12 and 19 of the experiment as reducing the number of rats with severe ataxia limb dystonia and mortality in % compared to control. Side hyperkinetic effects were evaluated in the “open field” test. In this test the locomotive activity in rats is determined. […] Registration of horizontal and vertical locomotive activity in OF assay was performed on the 10th and 18th day of the experiment, within 40 minutes after administration of the substance and 5 minutes before administration of rotenone. Side hyperkinetic effects was evaluated by the number of rats with a significant (at least 50% compared with the first day of the experiment) increase in horizontal and vertical activity (hyperkinesia) as a % of the total number of rats in group.
The neuro-protective effect in the experimental groups of rats with rotenone-induced PSP was evaluated due the elimination of ataxia and mortality caused by neurotoxic action of rotenone. Ataxia is typical incoordination neurotoxic effect of rotenone manifested in uncoordinated movements and hyper-locomotion, replaced by hypokinesia and stereotypes, and in severe cases a complete violation of antigravity reflexes, falling on its side and akinesia. Assessment of the severity of ataxia in scores was performed using the following scale: (+) uncoordinated movement, hyperkinesia; (++) significant incoordination, hypokinesia, stereotypes, falling on its side; (+++) complete violation of antigravity reflexes, akinesia. Ataxia registration was performed twice daily, 30 minutes before administration of rotenone and 180 minutes after administration of rotenone. For each experimental group on a daily basis, throughout the whole period of observation number of rats with severe ataxia (++−+++) and mortality in % of the total number of rats in group was determined. The neuro-protective effect of therapy (effects on rate of ataxia and lethality) in rats with PSP was determined at days 12 and 19 of the experiment as reducing the number of rats with severe ataxia and mortality in % compared to control. Side hyperkinetic effects were evaluated in the “open field” test. In this test the locomotive activity in rats is determined. […] Registration of horizontal and vertical locomotive activity in OF assay was performed on the 10th and 18th day of the experiment, within 40 minutes after administration of the substance and 5 minutes before administration of rotenone.

SMILES: N[C@@H](Cc1ccc(O)c(O)c1)C(=O)O [Levodopa, L-3,4-dihydroxyphenylalanine]
- Severe ataxia sustained dystonic postures and lethality (% of group) (Day 12, levodopa 10 mg/kg oral): 14 % of group
- [lethality] (% of group) (Day 12, levodopa 10 mg/kg oral): 0 % of group
- Severe ataxia sustained dystonic postures and lethality (% of group) (Day 12, levodopa 20 mg/kg oral): 0[0] % of group
- [lethality] (% of group) (Day 12, levodopa 20 mg/kg oral): 0[0] % of group
- Severe ataxia sustained dystonic postures and lethality (% of group) (Day 19, levodopa 10 mg/kg oral): 42 % of group
- [lethality] (% of group) (Day 19, levodopa 10 mg/kg oral): 14 % of group
- Severe ataxia sustained dystonic postures and lethality (% of group) (Day 19, levodopa 20 mg/kg oral): 24 % of group
- [lethality] (% of group) (Day 19, levodopa 20 mg/kg oral): 0 % of group

SMILES: CC12CC3CC(C)(C1)CC(N)(C3)C2 [Memantine, memantine]
- Severe ataxia sustained dystonic postures and lethality (% of group) (Day 12, memantine 5 mg/kg oral): 0 % of group
- [lethality] (% of group) (Day 12, memantine 5 mg/kg oral): 17 % of group
- Severe ataxia sustained dystonic postures and lethality (% of group) (Day 19, memantine 5 mg/kg oral): 17[17] % of group
- [lethality] (% of group) (Day 19, memantine 5 mg/kg oral): 17[17] % of group
